Article PMC8317212 (Journal of medicinal chemistry, 2016)
Counter-ions that a name gives are not always drawn. Like-named read-outs stand apart in the source and are kept apart here.

What was measured:
Type in all cases: cell-based
[1] = target: human 5-HT2A (Homo sapiens, UniProt P28223); assay: FLIPR calcium flux assay, 5-HT2A
[2] = target: human 5-HT2B (Homo sapiens, UniProt P41595); assay: FLIPR calcium flux assay, 5-HT2B; conditions: for Emax 5-HT2B: HEK-293 cells stably expressing human receptor
human 5-HT2B, sequence (P41595 whole entry): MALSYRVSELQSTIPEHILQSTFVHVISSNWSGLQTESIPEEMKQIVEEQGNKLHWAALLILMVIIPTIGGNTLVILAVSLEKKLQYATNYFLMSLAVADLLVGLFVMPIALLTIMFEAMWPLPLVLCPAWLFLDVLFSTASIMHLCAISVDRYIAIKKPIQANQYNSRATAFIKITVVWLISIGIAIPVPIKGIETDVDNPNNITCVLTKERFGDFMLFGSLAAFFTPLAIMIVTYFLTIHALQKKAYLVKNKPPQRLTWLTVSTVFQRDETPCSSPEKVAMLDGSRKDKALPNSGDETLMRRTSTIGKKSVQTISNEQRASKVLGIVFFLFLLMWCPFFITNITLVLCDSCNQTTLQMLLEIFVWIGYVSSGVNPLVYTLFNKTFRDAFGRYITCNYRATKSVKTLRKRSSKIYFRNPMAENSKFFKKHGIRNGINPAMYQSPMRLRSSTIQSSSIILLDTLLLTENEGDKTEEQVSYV

[3] = target: T1, human 5-HT2C-INI (Homo sapiens, UniProt P28335); assay: FLIPR calcium flux assay, 5-HT2C; conditions: for EC50: read-out: EC50, nM 5-HT2C, FLIPR, HEK-293 cells stably expressing human receptor
T1 sequence (P28335 33-458): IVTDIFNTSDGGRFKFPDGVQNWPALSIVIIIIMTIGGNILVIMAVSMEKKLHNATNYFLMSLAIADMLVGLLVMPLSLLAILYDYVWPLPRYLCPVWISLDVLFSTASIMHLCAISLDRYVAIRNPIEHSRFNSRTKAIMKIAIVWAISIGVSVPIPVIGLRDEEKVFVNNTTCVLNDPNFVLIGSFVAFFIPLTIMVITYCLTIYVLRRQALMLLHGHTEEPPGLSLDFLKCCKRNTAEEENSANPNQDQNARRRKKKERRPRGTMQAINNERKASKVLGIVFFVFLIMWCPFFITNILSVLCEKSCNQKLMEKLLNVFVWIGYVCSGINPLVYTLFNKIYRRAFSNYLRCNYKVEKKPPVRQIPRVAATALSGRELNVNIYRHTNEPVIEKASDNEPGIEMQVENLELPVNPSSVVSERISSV

[4] = EC50, nM 5-HT2B, FLIPR, HEK-293 cells, NA = no activity (Emax < 15%) at 10 μM

human 5-HT2A, sequence (P28223 whole entry): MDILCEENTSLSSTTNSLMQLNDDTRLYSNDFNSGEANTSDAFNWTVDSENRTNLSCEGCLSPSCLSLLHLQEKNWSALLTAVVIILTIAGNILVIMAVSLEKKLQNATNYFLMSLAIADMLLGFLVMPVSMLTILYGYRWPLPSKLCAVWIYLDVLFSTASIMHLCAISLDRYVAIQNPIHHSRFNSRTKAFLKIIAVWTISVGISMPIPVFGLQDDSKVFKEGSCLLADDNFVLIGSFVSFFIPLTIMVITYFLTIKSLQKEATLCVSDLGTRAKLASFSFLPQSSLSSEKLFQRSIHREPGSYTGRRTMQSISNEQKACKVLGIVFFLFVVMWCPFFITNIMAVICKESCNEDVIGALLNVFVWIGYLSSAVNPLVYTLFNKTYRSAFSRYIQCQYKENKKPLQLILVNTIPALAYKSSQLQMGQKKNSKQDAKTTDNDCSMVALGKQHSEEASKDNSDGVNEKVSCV

SMILES	EC50, nM 5-HT2A [1]	EC50 [3] [nM]	also measured
Cl.NCC1CC1c1cc(Cl)c(F)cc1OCCF (single isomer, unassigned; (-)) [(–)-21c, (–)-[2-[5-Chloro-4-fluoro-2-(2-fluoroethoxy)phenyl]cyclopropyl]methanamine Hydrochloride]	NA (no activity (Emax < 15%) at 10 μM)	–	–
COc1ccc(Cl)c(Cl)c1C1CC1CN.Cl (single isomer, unassigned; (-)) [(–)-20f, (–)-[2-(2,3-Dichloro-6-methoxyphenyl)cyclopropyl]methanamine Hydrochloride]	–	–	selectivity over 5-HT2B ([2]; 5-HT2C vs 5-HT2B): 50 fold
Cl.NCC1CC1c1c(OCCF)ccc(F)c1F (single isomer, unassigned; (-)) [(–)-21b, (–)-[2-[2,3-Difluoro-6-(2-fluoroethoxy)phenyl]cyclopropyl]methanamine Hydrochloride]	NA (no activity (Emax < 15%) at 10 μM)	–	–
NCC1CC1c1cc(Cl)c(F)cc1OCCF (single isomer, unassigned; (+)) [(+)-21c, (+)-[2-[5-Chloro-4-fluoro-2-(2-fluoroethoxy)phenyl]cyclopropyl]methanamine Hydrochloride]	–	24	EC50 ([2]; read-out: EC50, nM 5-HT2B): 506 nM
Cl.NCC1CC1c1cc(Cl)c(Cl)cc1OCCF (single isomer, unassigned; (-)) [(–)-21e, (–)-[2-[4,5-Dichloro-2-(2-fluoroethoxy)phenyl]cyclopropyl]methanamine Hydrochloride]	NA (no activity (Emax < 15%) at 10 μM)	–	EC50, nM 5-HT2B [2]: NA (no activity (Emax < 15%) at 10 μM)
C=CCOc1ccc(F)c(Cl)c1C1CC1CN.Cl (single isomer, unassigned; (-)) [(–)-22g, (–)-[2-[6-(Allyloxy)-2-chloro-3-fluorophenyl]cyclopropyl]methanamine Hydrochloride]	NA (no activity (Emax < 15%) at 10 μM)	–	–
Cl.NCC1CC1c1cc(F)c(F)cc1OCCF (single isomer, unassigned; (-)) [(–)-21a, (–)-[2-[4,5-Difluoro-2-(2-fluoroethoxy)phenyl]cyclopropyl]methanamine Hydrochloride]	NA (no activity (Emax < 15%) at 10 μM)	–	EC50, nM 5-HT2B [2]: NA (no activity (Emax < 15%) at 10 μM)
C=CCOc1cc(Cl)c(Cl)cc1C1CC1CN (single isomer, unassigned; (+)) [(+)-22e, (+)-[2-[2-(Allyloxy)-4,5-dichlorophenyl]cyclopropyl]methanamine Hydrochloride]	–	61	–
C=CCOc1ccc(F)c(F)c1C1CC1CN.Cl (single isomer, unassigned; (+)) [(+)-22b, (+)-[2-[6-(Allyloxy)-2,3-difluorophenyl]cyclopropyl]methanamine hydrochloride]	NA (no activity (Emax < 15%) at 10 μM)	36	EC50 ([2]; read-out: EC50, nM 5-HT2B): 3340 nM
Cl.NCC1CC1c1c(OCCF)ccc(Cl)c1F (single isomer, unassigned; (+)) [(+)-21d, (+)-[2-[3-Chloro-2-fluoro-6-(2-fluoroethoxy)phenyl]cyclopropyl]methanamine Hydrochloride]	–	71	EC50, nM 5-HT2B [2]: NA (no activity (Emax < 15%) at 10 μM)
C=CCOc1cc(Cl)c(Cl)cc1C1CC1CN.Cl (single isomer, unassigned; (-)) [(–)-22e, (–)-[2-[2-(Allyloxy)-4,5-dichlorophenyl]cyclopropyl]methanamine Hydrochloride]	NA (no activity (Emax < 15%) at 10 μM)	–	EC50, nM 5-HT2B [2]: NA (no activity (Emax < 15%) at 10 μM)
NCC1CC1c1cc(F)c(F)cc1OCCF (single isomer, unassigned; (+)) [(+)-21a, (+)-[2-[4,5-Difluoro-2-(2-fluoroethoxy)phenyl]cyclopropyl]methanamine Hydrochloride]	–	7.3	–
NCC1CC1c1c(OCCF)ccc(F)c1Cl (single isomer, unassigned; (+)) [(+)-21g, (+)-[2-[2-Chloro-3-fluoro-6-(2-fluoroethoxy)phenyl]cyclopropyl]methanamine Hydrochloride]	–	49	–
C=CCOc1ccc(F)c(F)c1C1CC1CN.Cl (single isomer, unassigned; (-)) [(–)-22b, (–)-[2-[6-(Allyloxy)-2,3-difluorophenyl]cyclopropyl]methanamine hydrochloride]	NA (no activity (Emax < 15%) at 10 μM)	–	–
Cl.NCC1CC1c1c(OCCF)ccc(Cl)c1Cl (single isomer, unassigned; (+)) [(+)-21f, (+)-[2-[2,3-Dichloro-6-(2-fluoroethoxy)phenyl]cyclopropyl]methanamine Hydrochloride]	–	–	Emax 5-HT2B ([2]; FLIPR): 99%
C=CCOc1ccc(Cl)c(Cl)c1C1CC1CN.Cl (single isomer, unassigned; (+)) [(+)-22f, (+)-[2-[6-(Allyloxy)-2,3-dichlorophenyl]cyclopropyl]methanamine Hydrochloride]	NA (no activity (Emax < 15%) at 10 μM)	–	EC50, nM 5-HT2B [2]: NA (no activity (Emax < 15%) at 10 μM)
Cl.NCC1CC1c1c(OCCF)ccc(F)c1Cl (single isomer, unassigned; (-)) [(–)-21g, (–)-[2-[2-Chloro-3-fluoro-6-(2-fluoroethoxy)phenyl]cyclopropyl]methanamine Hydrochloride]	NA (no activity (Emax < 15%) at 10 μM)	–	Emax 5-HT2B ([2]; FLIPR): 29%
NCC1CC1c1c(OCCF)ccc(F)c1F (single isomer, unassigned; (+)) [(+)-21b, (+)-[2-[2,3-Difluoro-6-(2-fluoroethoxy)phenyl]cyclopropyl]methanamine Hydrochloride]	–	25	–
C=CCOc1cc(F)c(Cl)cc1C1CC1CN.Cl (single isomer, unassigned; (-)) [(–)-22c, (–)-[2-[2-(Allyloxy)-5-chloro-4-fluorophenyl]cyclopropyl]methanamine Hydrochloride]	NA (no activity (Emax < 15%) at 10 μM)	–	–
COc1ccc(Cl)c(Cl)c1C1CC1CN.Cl (single isomer, unassigned; (+)) [(+)-20f, (+)-[2-(2,3-Dichloro-6-methoxyphenyl)cyclopropyl]methanamine Hydrochloride]	–	–	Emax 5-HT2A ([1]; FLIPR, HEK-293 cells stably expressing human receptor): 76%; Emax 5-HT2B ([2]; FLIPR): 46%; fold weaker at 5-HT2C than its enantiomer ([3]; compared to the (–)-enantiomer): 20 fold
Cl.NCC1CC1c1c(OCCF)ccc(Cl)c1F (single isomer, unassigned; (-)) [(–)-21d, (–)-[2-[3-Chloro-2-fluoro-6-(2-fluoroethoxy)phenyl]cyclopropyl]methanamine Hydrochloride]	NA (no activity (Emax < 15%) at 10 μM)	–	EC50, nM 5-HT2B [2]: NA (no activity (Emax < 15%) at 10 μM)
C=CCOc1ccc(Cl)c(F)c1C1CC1CN.Cl (single isomer, unassigned; (+)) [(+)-22d, (+)-[2-[6-(Allyloxy)-3-chloro-2-fluorophenyl]cyclopropyl]methanamine Hydrochloride]	NA (no activity (Emax < 15%) at 10 μM)	116	–
COc1ccc(F)c(Cl)c1C1CC1CN.Cl (single isomer, unassigned; (+)) [(+)-20g, (+)-[2-(2-Chloro-3-fluoro-6-methoxyphenyl)cyclopropyl]methanamine Hydrochloride]	–	–	Emax 5-HT2B ([2]; FLIPR): 60%
C=CCOc1ccc(Cl)c(F)c1C1CC1CN.Cl (single isomer, unassigned; (-)) [(–)-22d, (–)-[2-[6-(Allyloxy)-3-chloro-2-fluorophenyl]cyclopropyl]methanamine Hydrochloride]	–	–	EC50, nM 5-HT2B [2]: NA (no activity (Emax < 15%) at 10 μM)
C=CCOc1cc(F)c(Cl)cc1C1CC1CN.Cl (single isomer, unassigned; (+)) [(+)-22c, (+)-[2-[2-(Allyloxy)-5-chloro-4-fluorophenyl]cyclopropyl]methanamine Hydrochloride]	–	42	Emax 5-HT2B ([2]; FLIPR): 44%
Cl.NCC1CC1c1c(OCCF)ccc(Cl)c1Cl (single isomer, unassigned; (-)) [(–)-21f, (–)-[2-[2,3-Dichloro-6-(2-fluoroethoxy)phenyl]cyclopropyl]methanamine Hydrochloride]	NA (no activity (Emax < 15%) at 10 μM)	–	EC50 [2, 4]: > 10000 nM; Emax 5-HT2B ([2]; FLIPR): 62%
NCC1CC1c1cc(Cl)c(Cl)cc1OCCF (single isomer, unassigned; (+)) [(+)-21e, (+)-[2-[4,5-Dichloro-2-(2-fluoroethoxy)phenyl]cyclopropyl]methanamine Hydrochloride]	–	18	EC50 [2, 4]: > 10000 nM
C=CCOc1ccc(F)c(Cl)c1C1CC1CN.Cl (single isomer, unassigned; (+)) [(+)-22g, (+)-[2-[6-(Allyloxy)-2-chloro-3-fluorophenyl]cyclopropyl]methanamine Hydrochloride]	NA (no activity (Emax < 15%) at 10 μM)	–	–
